According to patent US20130005676A1 (UNIVERSITY OF ROCHESTER, priority 2009, published 2013):
“Also recorded” adds a separate entry of the source. One block for each molecule: values may come before it.

Experiments:
[1] = target: adenosine transport; details: adenosine transport inhibitors; unit inferred; cited from earlier work
[2] = target: Ecto-ATPase; details: cited from earlier work
[3] = tested on: P2 receptors; details: cited from earlier work
[4] = target: Ecto-ATPase; details: Crack et al.; cited from earlier work
[5] = target: Rat Parotid Ecto-ATPase; details: cited from earlier work
[6] = tested on: enzymes involved in extracellular degradation of AMP; test: Phosphate production (Malachite Green) in tissue sections from the Zusanli point; format: biochemical, mice; details: for dephosphorylation of AMP (phosphate production): inhibitor 500 μM, tissue in 1 mM AMP for 45 min; for rate of phosphate generation: 1 mM added as substrate, n=3
[7] = target: T1, adenosine kinase (Homo sapiens, UniProt P55263); details: adenosine as substrate; cited from earlier work
[8] = tested on: mice with inflammatory pain (CFA); test: Inflammatory pain (CFA in paw): mechanical allodynia (Von Frey) and thermal hyperalgesia; format: in vivo
From the text: Peripheral inflammation was induced by injection of Complete Freud Adjuvant (CFA, mixed with an equal amount of oil, […], Jackson labs) (Raghavendra et al., “Complete Freunds Adjuvant-Induced Peripheral Inflammation Evokes Glial Activation and Proinflammatory Cytokine Expression in the CNS,” Eur. J. Neurosci. 20:467-473 (2004), which is hereby incorporated by reference in its entirety). […] Neuropathic pain was induced by ligation of the sciatic nerve with 4.0 polypropylene suture in mice sedated with ketamine (60 mg/kg, i.p.) and xylazine (10 mg/kg, i.p.) (Bennett et al., “A Peripheral Mononeuropathy in Rat that Produces Disorders of Pain Sensation Like Those Seen in Man,” Pain 33:87-107 (1988); Martucci et al., “The Purinergic Antagonist PPADS Reduces Pain Related Behaviours and Interleukin-1 beta, Interleukin-6, iNOS and nNOS Overproduction in Central and Peripheral Nervous System After Peripheral Neuropathy in Mice,” Pain 137:81-95 (2008), which are hereby incorporated by reference in their entirety).
Mechanical allodynia was evaluated using repeated stimulations with a Von Frey filament exerting 0.02 grams of force onto the plantar surface (Colburn et al., “The Effect of Site and Type of Nerve Injury on Spinal Glial Activation and Neuropathic Pain Behavior,” Exp. Neurol. 157:289-304. (1999), which is hereby incorporated by reference in its entirety). The percentage of negative responses of a total of 10 trials was calculated for each foot. Thermal hyperalgesia was assessed using an Analgesymeter (Ugo Basile, Comerio, Italy) (Stein et al., “Intrinsic Mechanisms of Antinociception in Inflammation: Local Opioid Receptors and Beta-Endorphin,” J. Neurosci. 10:1292-1298 (1990), which is hereby incorporated by reference in its entirety). In short, a mobile radiant heat source was focused on the hind paw, and the paw withdrawal latencies were defined as the time taken by the mouse to remove its hind paw from the heat source (max 20 sec to avoid tissue damage). The paw withdrawal was repeated three times for each foot and the average calculated. To avoid conditioning to stimulation a 5 min rest period was interposed between each trial in both thermal and mechanical tests. Behavioral parameters were evaluated prior to intraplantar injection of CFA or nerve ligation (i.e. day 0), and again on day 3-4 in mice receiving the CFA injection, and at day 5-7 in mice with nerve ligation unless otherwise noted. Prior to injection of CCPA, saline, or acupuncture in the Zusanli point, the mice were placed in a restraining under light isoflurane anesthesia (˜1%). The total duration of anesthesia was ˜2 min and mice with inflammatory, neurogenic pain, and their controls were treated similarly. 2-chloro-N6-cyclopentyl-adenosine (CCPA, 0.1 mM, 20 μl) was injected in the Zusanli point ˜5 min before acupuncture. […] The needle was slowly rotated ˜2 time (˜20-30 sec) every 5 min for a total of 30 min during an acupuncture session. A microdialysis probe (MD-2211, Bioanalytical systems, West Lafayette, Ind.) was implanted 1-3 hrs prior to collection of microdialysis samples. The microdialysis probe was implanted in a distance of 0.4-0.6 mm from the Zusanli point. The microdialysis probe was perfused with Ringer's solution at a rate of 1 μl per minute. The microdialysates were collected on ice and the perfusate collected over a 30 min period (30 μl) was immediately frozen at −80° C. until HPLC analysis. Deoxycoformycin was administered in a dose of 50 mg/kg i.p. 30 min prior to acupuncture.

[9] = target: T1, adenosine kinase; details: cited from earlier work
[10] = tested on: mice with inflammatory or neuropathic pain; test: Statements covering both inflammatory and neuropathic pain models; format: in vivo; details: both pain models
Description: Peripheral inflammation was induced by injection of Complete Freud Adjuvant (CFA, mixed with an equal amount of oil, total volume 0.1 ml) in the plantar surface of the left hind paw of mice (25-30 g, Jackson labs) (Raghavendra et al., “Complete Freunds Adjuvant-Induced Peripheral Inflammation Evokes Glial Activation and Proinflammatory Cytokine Expression in the CNS,” Eur. J. Neurosci. 20:467-473 (2004), which is hereby incorporated by reference in its entirety). An equal amount of saline (0.1 ml) was injected in the right hind paw as control. […]
Mechanical allodynia was evaluated using repeated stimulations with a Von Frey filament exerting 0.02 grams of force onto the plantar surface (Colburn et al., “The Effect of Site and Type of Nerve Injury on Spinal Glial Activation and Neuropathic Pain Behavior,” Exp. Neurol. 157:289-304. (1999), which is hereby incorporated by reference in its entirety). The percentage of negative responses of a total of 10 trials was calculated for each foot. Thermal hyperalgesia was assessed using an Analgesymeter (Ugo Basile, Comerio, Italy) (Stein et al., “Intrinsic Mechanisms of Antinociception in Inflammation: Local Opioid Receptors and Beta-Endorphin,” J. Neurosci. 10:1292-1298 (1990), which is hereby incorporated by reference in its entirety). […] The paw withdrawal was repeated three times for each foot and the average calculated. […] Behavioral parameters were evaluated prior to intraplantar injection of CFA or nerve ligation (i.e. day 0), and again on day 3-4 in mice receiving the CFA injection, and at day 5-7 in mice with nerve ligation unless otherwise noted. […]

[11] = tested on: fEPSP in anterior cingulate cortex; test: In vivo electrophysiology: fEPSP in left anterior cingulate cortex evoked by painful foot shock; design: species or system mice
Description: Mice were anaesthetized with 2-3% isoflurane, intubated, and artificially ventilated with a small animal ventilator (SAAR-830, CWE). Body temperature was monitored by a rectal probe and maintained at 37° C. by a heating blanket (BS4, Harvard Apparatus). A craniotomy (1-1.5 mm in diameter), centered 0.1 mm anterior to the bregma and 1.5 mm lateral from midline, was made over the left anterior cingulated cortex. A custom-made metal plate was glued to the skull with dental acrylic cement. The mice were for the remaining part of the experiment maintained at 2% isoflurane. LFP recordings were obtained from layer 4 of anterior cingulate cortex (ACC), 0.8 mm below the pial surface by a patch pipette (TW100E-4, WPI; outer diameter, 1.0 mm; inner diameter, 0.75 mm; tip diameter, 1-2 μm). […] Dura matter was kept intact. A custom-made bipolar electrode was inserted subcutaneously into the right hindpaw. High intensity stimulation (10 mA, 20 ms) were evoked every 120 sec. Lower stimulation intensities evoked either no or variable responses consistent with the idea that that ACC neurons respond primarily to painful stimuli Wei et al., “Potentiation of Sensory Responses in the Anterior Cingulate Cortex Following Digit Amputation in the Anaesthetised Rat,” J. Physiol. 532:823-833 (2001), which is hereby incorporated by reference in its entirety). The amplitude of the field EPSPs was measured using the pCLAMP 9.2 program (Axon Instruments, Inc., Foster City, Calif., USA).

[12] = tested on: mice with neuropathic pain; test: Neuropathic pain (sciatic nerve ligation): mechanical allodynia and thermal hyperalgesia; format: in vivo
Description: Peripheral inflammation was induced by injection of Complete Freud Adjuvant (CFA, mixed with an equal amount of oil, total volume 0.1 ml) in the plantar surface of the left hind paw of mice (25-30 g, Jackson labs) (Raghavendra et al., “Complete Freunds Adjuvant-Induced Peripheral Inflammation Evokes Glial Activation and Proinflammatory Cytokine Expression in the CNS,” Eur. J. Neurosci. 20:467-473 (2004), which is hereby incorporated by reference in its entirety). An equal amount of saline (0.1 ml) was injected in the right hind paw as control. Neuropathic pain was induced by ligation of the sciatic nerve with 4.0 polypropylene suture in mice sedated with ketamine (60 mg/kg, i.p.) and xylazine (10 mg/kg, i.p.) (Bennett et al., “A Peripheral Mononeuropathy in Rat that Produces Disorders of Pain Sensation Like Those Seen in Man,” Pain 33:87-107 (1988); Martucci et al., “The Purinergic Antagonist PPADS Reduces Pain Related Behaviours and Interleukin-1 beta, Interleukin-6, iNOS and nNOS Overproduction in Central and Peripheral Nervous System After Peripheral Neuropathy in Mice,” Pain 137:81-95 (2008), which are hereby incorporated by reference in their entirety).
Mechanical allodynia was evaluated using repeated stimulations with a Von Frey filament exerting 0.02 grams of force onto the plantar surface (Colburn et al., “The Effect of Site and Type of Nerve Injury on Spinal Glial Activation and Neuropathic Pain Behavior,” Exp. Neurol. 157:289-304. (1999), which is hereby incorporated by reference in its entirety). The percentage of negative responses of a total of 10 trials was calculated for each foot. Thermal hyperalgesia was assessed using an Analgesymeter (Ugo Basile, Comerio, Italy) (Stein et al., “Intrinsic Mechanisms of Antinociception in Inflammation: Local Opioid Receptors and Beta-Endorphin,” J. Neurosci. 10:1292-1298 (1990), which is hereby incorporated by reference in its entirety). In short, a mobile radiant heat source was focused on the hind paw, and the paw withdrawal latencies were defined as the time taken by the mouse to remove its hind paw from the heat source (max 20 sec to avoid tissue damage). The paw withdrawal was repeated three times for each foot and the average calculated. To avoid conditioning to stimulation a 5 min rest period was interposed between each trial in both thermal and mechanical tests. Behavioral parameters were evaluated prior to intraplantar injection of CFA or nerve ligation (i.e. day 0), and again on day 3-4 in mice receiving the CFA injection, and at day 5-7 in mice with nerve ligation unless otherwise noted. Prior to injection of CCPA, saline, or acupuncture in the Zusanli point, the mice were placed in a restraining under light isoflurane anesthesia (˜1%). […]

T1 sequence (P55263 whole entry, species assumed): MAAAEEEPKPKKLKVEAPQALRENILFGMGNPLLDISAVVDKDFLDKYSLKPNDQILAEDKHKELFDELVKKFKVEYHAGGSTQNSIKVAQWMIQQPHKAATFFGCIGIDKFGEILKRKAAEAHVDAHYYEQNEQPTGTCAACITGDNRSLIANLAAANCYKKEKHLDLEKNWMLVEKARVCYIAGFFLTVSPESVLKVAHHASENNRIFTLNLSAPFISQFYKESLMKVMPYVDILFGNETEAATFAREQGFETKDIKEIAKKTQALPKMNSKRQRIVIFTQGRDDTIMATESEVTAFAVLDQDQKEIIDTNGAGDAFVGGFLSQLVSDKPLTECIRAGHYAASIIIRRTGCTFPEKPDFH

SMILES: NC(=O)C1CN(CCCCC(c2ccc(F)cc2)c2ccc(F)cc2)CCN1CC(=O)Nc1c(Cl)cc(N)cc1Cl (centres unmarked) [R75231, 2-(aminocarbonyl)-N-(4-amino-2,6-dichlorophenyl)-4-[5,5-bis(4-fluorophenyl)pentyl]-1-piperazineacetamide]
Ki [1]: 0.0001 µM

SMILES: CCN(CC)c1ncnc2c1ncn2[C@@H]1O[C@H](COP(=O)(O)OP(=O)(O)C(Br)(Br)P(=O)(O)O)[C@@H](O)[C@H]1O [ARL67156]
Ki [2]: 0.255 µM
effect on P2 receptors [3]: lack of or only has weak effect
IC50 [4]: 4.6 µM
IC50 [5]: 120 µM

SMILES: Nc1ncnc2c1ncn2[C@@H]1O[C@H](COP(=O)(O)CP(=O)(O)O)[C@@H](O)[C@H]1O [AOPCP]
dephosphorylation of AMP (phosphate production) [6]: did not reduce dephosphorylation of AMP

SMILES: Nc1ncnc2c1ncn2[C@@H]1O[C@H](CO)[C@@H](O)[C@H]1O [adenosine]
Km [7]: ~0.02 µM

SMILES: O=S(=O)(NCCNC/C=C/c1ccc(Br)cc1)c1cccc2cnccc12 [H-89]
CFA-induced mechanical pain hypersensitivity, contralateral paw ([8]; injected in the Zusanli point): not the contralateral paw
CFA-induced mechanical pain hypersensitivity, ipsilateral (right leg) ([8]; injected in the Zusanli point): transiently and significantly reduced; also recorded: reduced pain temporarily

SMILES: Nc1ncnc2c1c(Br)cn2[C@@H]1C[C@H](N)[C@@H](O)[C@H]1O [A-286501, N7-((1′R,2′S,3′R,4′S)-2′,3′-dihydroxy-4′-amino-cyclopentyl)-4-amino-5-bromo-pyrrolo[2,3-a]pyrimidine]
IC50 [9]: 0.00047 µM

SMILES: OC[C@H]1O[C@@H](n2cnc3c(NC4CCCC4)nc(Cl)nc32)[C@H](O)[C@@H]1O [CCPA, 2-chloro-N(6)-cyclopentyladenosine]
course of the pain-relieving effect [10]: transient
sensitivity to painful stimulation in the contralateral (left) leg ([10]; injection in right Zusanli point): did not alter sensitivity
mechanical and thermal hypersensitivity / pain threshold in right foot ([8]; 0.1 mM, 20 μl injected in the left (contralateral) Zusanli point): no effect; also recorded: did not alter the pain threshold
mechanical and thermal pain in mice with deletion of A1 receptors ([8]; A1R KO mice): no clinical benefit
paw withdrawal (thermal) ([8]; WT mice, after 0.1 mM, 20 μl in right Zusanli point, before: 3.7±0.3): 12.7 ± 1.5 s
touch sensitivity (percentage of negative responses of 10 Von Frey trials) ([8]; WT mice, after 0.1 mM, 20 μl in right Zusanli point, before: 38.0±2.5): 85.7±2.0%
fEPSP response in mice with deletion of A1 receptors ([11]; A1R KO mice): failed to respond
fEPSP amplitude ([11]; WT, 0.1 mM 20 μl in right Zusanli point (ipsilateral), within 20 min, before ~0.65 mV): ~0.22 mV
fEPSP amplitude, % of baseline values ([11]; WT, ipsilateral injection, within 20 min): 26.6±11.0%
effect on fEPSP ([11]; administered contralateral to the painful stimulation): no effect
withdrawal of foot (thermal) ([12]; WT mice, after injection in Zusanli point, before: 2.9±0.3): 16.2 ± 2.4 s
touch sensitivity (percentage of negative responses of 10 Von Frey trials) ([12]; WT mice, after injection in Zusanli point, before: 25.0±2.2): 83.3±4.9%
mechanical and thermal hypersensitivity / pain threshold in right foot ([12]; injected in the left (contralateral) Zusanli point): no effect; also recorded: did not alter the pain threshold

rate of phosphate generation [6]: 0.043 ± 0.005 µM/mg/min
SMILES: Nc1ncnc2c1ncn2[C@@H]1O[C@H](COP(=O)(O)O)[C@@H](O)[C@H]1O [AMP]

rate of phosphate generation [6]: 0.428 ± 0.046 µM/mg/min
SMILES: Nc1ncnc2c1ncn2[C@@H]1O[C@H](COP(=O)(O)OP(=O)(O)OP(=O)(O)O)[C@@H](O)[C@H]1O [ATP]

SMILES: [O]=[Mo](=[O])([O-])[O-] [molybdate]
dephosphorylation of AMP (phosphate production) [6]: partly suppressed dephosphorylation of AMP
